Earlier results, collected in PubChem BioAssay AID1259409 (Chemical Carcinogenesis Research Information System (CCRIS), 2018).

Test system: rodent chemically induced tumor inhibition, incidence and multiplicity
Test: CCRIS tumor inhibitor studies
Settings: Dose [Inhibitor]: 0

Row | Compound | tumour outcome (control, treated, inhibition, significance) (Carcinogen: AZOXYMETHANE (25843-45-2), 0.05% ADMINISTERED 1 WK AFTER END OF DEXTRAN SODIUM SULFATE TREATMENT FOR 14 WKS (STUDY DURATION: 17 WKS), Route [Inhibitor]: DIET, Species: MOUSE, Strain/Sex: CD-1/FEMALE (10,10)/(10,10), Target Tissue: Type of Lesion: COLON: ADENOCARCINOMA, Dose [Carcinogen]: 10 MG/KG ONCE, Promoter: DEXTRAN SODIUM SULFATE (9011-18-1)) | tumour outcome (control, treated, inhibition, significance) (Carcinogen: AZOXYMETHANE (25843-45-2), 0.05% ADMINISTERED 1 WK AFTER END OF DEXTRAN SODIUM SULFATE TREATMENT FOR 14 WKS (STUDY DURATION: 17 WKS), Route [Inhibitor]: DIET, Species: MOUSE, Strain/Sex: CD-1/FEMALE (10,10)/(10,10), Target Tissue: Type of Lesion: COLON: ADENOMA, Dose [Carcinogen]: 10 MG/KG ONCE, Promoter: DEXTRAN SODIUM SULFATE (9011-18-1)) | tumour outcome (control, treated, inhibition, significance) (Carcinogen: N-ETHYL-N'-NITRO-N-NITROSOGUANIDINE, 4245-77-6, 20 MG/KG/D IN DIET FOR 16 WK (STUDY DURATION: 16 WK), Route [Inhibitor]: ORAL, Species: MOUSE, Strain/Sex: C57BL/MALE, Target Tissue: Type of Lesion: DUODENUM: TUMOR, Dose [Carcinogen]: 100 MG/L IN DRINKING WATER FOR 4 WK, Promoter: NONE USED) | tumour outcome (control, treated, inhibition, significance) (Carcinogen: N-ETHYL-N'-NITRO-N-NITROSOGUANIDINE, 4245-77-6, 20 MG/KG/D IN DIET FOR DURATION OF STUDY (STUDY DURATION: 16 WK), Route [Inhibitor]: ORAL, Species: MOUSE, Strain/Sex: C57BL/MALE, Target Tissue: Type of Lesion: DUODENUM: TUMOR, Dose [Carcinogen]: 100 MG/L IN DRINKING WATER FOR 4 WK, Promoter: NONE) | tumour outcome (control, treated, inhibition, significance) (Carcinogen: N-ETHYL-N'-NITRO-N-NITROSOGUANIDINE, 4245-77-6, 50 MG/KG/D IN DIET FOR 16 WK (STUDY DURATION: 16 WK), Route [Inhibitor]: ORAL, Species: MOUSE, Strain/Sex: C57BL/MALE, Target Tissue: Type of Lesion: DUODENUM: TUMOR, Dose [Carcinogen]: 100 MG/L IN DRINKING WATER FOR 4 WK, Promoter: NONE USED) | tumour outcome (control, treated, inhibition, significance) (Carcinogen: N-ETHYL-N'-NITRO-N-NITROSOGUANIDINE, 4245-77-6, 50 MG/KG/D IN DIET FOR DURATION OF STUDY (STUDY DURATION: 16 WK), Route [Inhibitor]: ORAL, Species: MOUSE, Strain/Sex: C57BL/MALE, Target Tissue: Type of Lesion: DUODENUM: TUMOR, Dose [Carcinogen]: 100 MG/L IN DRINKING WATER FOR 4 WK, Promoter: NONE) | tumour outcome (control, treated, inhibition, significance) (Carcinogen: N-METHYL-N'-NITRO-N-NITROSOGUANIDINE, 70-25-7, 20 MG/KG/D IN DIET FOR 34 WK BEGINNING 10 WK POST FIRST CARCINOGEN DOSE (STUDY DURATION: 44 WK), Route [Inhibitor]: ORAL, Species: RAT, Strain/Sex: WISTAR/MALE, Target Tissue: Type of Lesion: STOMACH: TUMOR, Dose [Carcinogen]: 80 MG/L IN DRINKING WATER FOR 28 WK, Promoter: NONE)
1 | CC(C)(Oc1ccc(CCNC(=O)c2ccc(Cl)cc2)cc1)C(=O)O | 10/10 (100%), 6/10 (60%), 40%, p<0.05 | 10/10 (100%), 7/10 (70%), 30%, not significant |  |  |  |  | 
2 | O=C(NC(Cc1cc(=O)[nH]c2ccccc12)C(=O)O)c1ccc(Cl)cc1 (configuration not stated) |  |  | 22/33 (67%), 18/33 (55%), 18%, not significant | 22/33 (67%), 18/31 (58%), 13%, not significant | 22/33 (67%), 14/33 (42%), 37%, p<0.05 | 22/33 (67%), 14/31 (45%), 33%, not significant | 10/13 (77%), 8/13 (62%), 19%, not significant
